From US20220400670A1, “PROTOPANAXATRIOL (PPT)-TYPE COMPOUNDS AS ACTIVE INGREDIENTS IN INSECTICIDE PRODUCTS” (priority 2019, published 2022) come the findings set out here.

Marks after values point to notes of the source that are not given here.

Assay [1] concerns Aphids (Aphis gossypii). The experiment in a line: Field tests in cotton: number of Aphids. In kind it is in vivo. Particulars: 6 days after the third application; EOS 1%, spinosad 60.5 g/ha, PPT 100 or 300 g/ha (FIG. 4B). An excerpt: Cotton plants were sprayed 3-4 times at 6-7 days interval with the indicated materials at a volume of 400 liter per hectare. The experiment included 4-5 repeats in random blocks of cotton plants growth, each repeat at an area of 8-10 m^2. The number of Thrips adults or larva, as well as the number of Aphids (Aphis gossypii), on each leaf was counted using OptiVISOR® magnifying device.

Assay [2] has as its system Silverleaf whitefly biotype Q (neonicotinoid-resistant strain). As to the kind of experiment: Lab tests in cotton: nymph mortality of silverleaf whitefly biotype Q. In kind it is in vivo, Bemisia tabaci. Particulars: cotton plants. The procedure: (§1) Cotton plants were grown in pots and sprayed with the indicated materials using a hand-sprayer. 20-25 females of Silverleaf whitefly biotype B (neonicotinoid-sensitive strain) or biotype Q (neonicotinoid-resistant strain) were transferred to each pot and attached to the treated leaves. Nymphs mortality was evaluated 1 and 2 weeks after treatment application and determined by percent (%) of pupation.

Assay [3] relates to Silverleaf whitefly biotype B (neonicotinoid-sensitive strain). The experiment in a line: Lab tests in cotton: nymph mortality of silverleaf whitefly biotype B. Format: in vivo, Bemisia tabaci. Particulars: cotton plants; acetamiprid-treated (FIG. 3A). As for the experimental part: as §1
The subject of assay [4] is Thrips tabaci. As to the kind of experiment: Field tests in cauliflower: Thrips on leaves and Thrips-induced damage. Format: in vivo. Particulars: another experiment, diafenthiuron 375 g/ha, PPT 400 g/ha; for Thrips adults per leaf / Thrips larva per leaf: cauliflower. An excerpt:
Cauliflower plants of White Corona variety at 20-30 cm height were sprayed twice at a 7 days interval with the indicted materials at a volume of 400-500 liter per hectare, using 3-nozzled ECHO backpack sprayer. The experiment included 4 repeats in random blocks of […] plants growth, each repeat at an area of 20 m^2. plots having high levels of Thrips tabaci (Thrips) infestation (5-10 Thrips per leaf) at uniform distribution at the beginning of the experiment were chosen for analysis, and 10 leaves per plot were picked and assessed for Thrips number. The number of Thrips adults or larva on each leaf was counted using OptiVISOR® magnifying device. The number of silverleaf whitefly (SLW) nymphs on each leaf was also counted using OptiVISOR® magnifying device.
At the end of the experiment the damage to the upper side of leaves caused by Thrips infestation was assessed on a scale of 0-5, where 0 equals no damage and 5 equals scraping on the leaf's blade (surface).

The test system of assay [5] is Thrips tabaci. As to the kind of experiment: Field tests in cucumber: number of Thrips on leaves. In kind it is in vivo. As to conditions: second experiment. The text has this:
Cucumber plants of kingstar variety at 170-190 cm height were sprayed twice at a 4 days interval with the indicted materials at a volume of 400-600 liter per hectare, using 3-nozzled ECHO backpack sprayer. The experiment included 4 repeats in random blocks of cucumber plants growth, each repeat at an area of 10-16 m^2. Plots having high levels of Thrips tabaci (Thrips) infestation (5-10 Thrips per leaf) at uniform distribution at the beginning of the experiment were chosen for analysis, and 10 leaves at shoulder height were picked and the number of Thrips was determined for each leaf.

Assay [6] deals with Spodoptera littoralis stage 2-3 larva. The experiment in a line: Screening assay for lethality. Format: in vivo. Particulars: PPT 50 ppm added to artificial medium; 3 screens, 4 larva replicates each. The procedure: Spodoptera littoralis stage 2-3 larva were grown in entomology trays on artificial medium. Treatment with PPT was effected by the addition of PPT (50 ppm) to the medium and lethality was assessed. The screening assay was repeated 3 times, with 4 larva replicates in each screen.

The subject of assay [7] is Pink Bollworm (Pectinophora gossypiella). The experiment in a line: Lab tests on pink bollworm eggs: hatching and larva development. In kind it is in vivo. As to conditions: 0.15% PPT solution, 5 repeats. An excerpt: Paper cuttings with Egg clusters of pink bollworm were soaked in a 0.15% PPT solution, and hatching and larva development were observed compared to untreated controls (UTC).

Where [8] appears, read: 4 DPA, neem oil 1%, PPT alone 225 g/ha.
Where [9] appears, read: 9 DPA, neem oil 1%, PPT alone 225 g/ha.
Setting [10] is: Day 0 (baseline), neem oil 1%, PPT alone 225 g/ha.

As to spinosad, the “number of Aphids on the cotton plants” value in assay [1] is given as “little or no effect”.

`C/C(=N\C#N)N(C)Cc1ccc(Cl)nc1` [Acetamiprid, reference compound]: the “nymph mortality of SLW biotype Q, determined by percent of pupation” value in assay [2] (acetamiprid 10 ppm (FIG. 3B)) is “had no effect”. Also, in assay [3], the “nymph mortality of SLW biotype B, determined by percent of pupation” value is given as “efficient in eliminating SLW nymphs”.

With `CC(C)c1cc(Oc2ccccc2)cc(C(C)C)c1NC(=S)NC(C)(C)C` [Diafenthiuron, reference compound], in assay [4] (7 DPA), the “% efficacy on Thrips larva in cauliflower leaves” value is recorded as 10%, the “Thrips adults per leaf” value is recorded as 1.3 per leaf and the “Thrips larva per leaf” value was found to be 13.9 per leaf. Also, in assay [4] (14 DPA), the “% efficacy on Thrips larva in cauliflower leaves” value was 0%, the “Thrips adults per leaf” value is 2.1 per leaf and the “Thrips larva per leaf” value was determined as 9.8 per leaf. Also, in assay [4] (Day 0 (baseline)), the “Thrips adults per leaf” value was 2.9 per leaf and the “Thrips larva per leaf” value amounted to 13.0 per leaf.

For `CC(C)=CCC[C@](C)(O)[C@H]1CC[C@]2(C)[C@@H]1[C@H](O)C[C@@H]1[C@@]3(C)CC[C@H](O)C(C)(C)[C@@H]3[C@@H](O)C[C@]12C` [PPT, Protopanaxatriol], the “% efficacy on Thrips in cucumber leaves” value came to 65.8% in assay [5] (4 DPA, PPT 500 g/ha) and 41.4% in assay [5] (setting [8]). For the same compound, the “Number of Thrips adults on 10 cucumber leaves” value in assay [5] (4 DPA, PPT 500 g/ha) was 42.5; in assay [5] (setting [8]) it was 78.3; in assay [5] (9 DPA, PPT 500 g/ha), 18.0; in assay [5] (setting [9]), 22.3; in assay [5] (Day 0 (baseline), PPT 500 g/ha) it was 41.8; in assay [5] (setting [10]), 36.0. In addition, the “Number of Thrips larva on 10 cucumber leaves” value is 30.0^a in assay [5] (4 DPA, PPT 500 g/ha); 45.8^a in assay [5] (setting [8]); 13.0 in assay [5] (9 DPA, PPT 500 g/ha); 38.8 in assay [5] (setting [9]); 110.0 in assay [5] (Day 0 (baseline), PPT 500 g/ha); 95.8 in assay [5] (setting [10]). In addition, the “Number of total Thrips (adults and larva) on 10 cucumber leaves” value in assay [5] (4 DPA, PPT 500 g/ha) is 72.5^a; in assay [5] (setting [8]), 124.0; in assay [5] (9 DPA, PPT 500 g/ha), 31.0; in assay [5] (setting [9]) it was 61.0; in assay [5] (Day 0 (baseline), PPT 500 g/ha) it was 151.8; in assay [5] (setting [10]), 131.8. Moreover, the “mortality of resistant SLW biotype (Q) nymphs” value in assay [2] (PPT 0.075% (0.5x) or 0.15% (1x), dose-dependent (FIG. 3B)) is “up to 93%”. Further, the “% efficacy on Thrips larva in cauliflower leaves” value in assay [4] (7 DPA) and in assay [4] (14 DPA) was 60% throughout. In addition, the “Thrips adults per leaf” value in assay [4] (7 DPA) is 0.6 per leaf; in assay [4] (14 DPA), 0.48^a,b per leaf; in assay [4] (Day 0 (baseline)), 3.0 per leaf. Also, the entries for the “Thrips larva per leaf” value in assay [4] (7 DPA), in assay [4] (14 DPA) and in assay [4] (Day 0 (baseline)) were 5.9 per leaf, 4.4^a,b per leaf and 16.5 per leaf, respectively. The lethality to larva entry in assay [6] is reported as “lethal”. Also, the “Average number of hatchings” value in assay [7] (day 9 after treatment) turned out to be 0.2. In assay [7] (day 16 post treatment), the “Average number of larva” value came out at 0. The “Average number of late hatchings” value in assay [7] (day 16 post treatment) is listed as 1.8.
